Measurements from patent US11452727B2, “Combination therapy for treating cancer” (Epizyme, Inc., priority 2017, dated 2022).

Tests used:
Assay in all cases: In vitro combination study with tazemetostat, cell proliferation (Cell Titer Glo)
NCI-H1703 = conditions: 7 days tazemetostat pre-treatment, 6 days co-treatment with second agent
Description: (§1) Initial proliferation studies were performed to determine the IC50 of tazemetostat in each cell line. For the screen, tazemetostat was used at concentrations bracketed around the IC50 value. If 50% inhibitory concentration was not reached then tazemetostat was tested starting at 10 μM.
(§2) In order to study the effect of dual combination of tazemetostat and a second agent on cell proliferation, cells in log-linear phase growth rate were pre-treated with various concentrations of tazemetostat or DMSO for 7 days in flasks, plated in 384-well plates in the absence of compounds and co-treated on day 8 with tazemetostat or DMSO and the second agent serially diluted for additional 6 days (as depicted in FIG. 1). On day 15, plates were developed for endpoint analysis using Cell Titer Glo to measure ATP content, which was used as an indicator of cell viability. DMSO concentration was kept constant throughout the assay at 0.15% v/v.

NCI-H2122 = conditions: 7 days tazemetostat pre-treatment, 6 days co-treatment with second agent
NCI-H23 = conditions: 7 days tazemetostat pre-treatment, 6 days co-treatment with second agent
NCI-H661 = conditions: 7 days tazemetostat pre-treatment, 6 days co-treatment with second agent
Description: as §1, §2
(§3) All cell lines were obtained from American Type Culture Collection (ATCC; Rockville, Md.). […] A427, Calu-3, Calu-6 cell lines were cultured in EMEM+10% Fetal bovine serum (FBS)+1% v/v Penicillin/Streptomycin (P/S).

NCI-H1573 = conditions: 7 days tazemetostat pre-treatment, 6 days co-treatment with second agent
Description: as §1, §2
(§4) NCI-H1573 was cultured in DMEM: F12 Medium containing the following components: 0.02 mg/ml insulin, 0.01 mg/ml transferrin, 25 nM sodium selenite, 50 nM Hydrocortisone, 1 ng/ml Epidermal Growth Factor, 0.01 mM ethanolamine, 0.01 mM phosphorylethanolamine, 100 pM triiodothyronine, 0.5% (w/v) bovine serum albumin, 0.5 mM sodium pyruvate, 4.5 mM L-glutamine and 1% v/v Pen/Strep.

A427 = conditions: A427; 7 days tazemetostat pre-treatment, 6 days co-treatment with second agent
NCI-H522 = conditions: 7 days tazemetostat pre-treatment, 6 days co-treatment with second agent
Description: as §1, §2

NCI-H1793 = conditions: 7 days tazemetostat pre-treatment, 6 days co-treatment with second agent
Description: as §1, §2, §4

NCI-H2110 = conditions: 7 days tazemetostat pre-treatment, 6 days co-treatment with second agent
Description: as §1, §2

NCI-H460 = conditions: 7 days tazemetostat pre-treatment, 6 days co-treatment with second agent
Description: as §1, §2, §3

Calu-3 = conditions: 7 days tazemetostat pre-treatment, 6 days co-treatment with second agent
Description: as §1, §2, §4

NCI-H2030 = conditions: 7 days tazemetostat pre-treatment, 6 days co-treatment with second agent
Calu-6 = conditions: 7 days tazemetostat pre-treatment, 6 days co-treatment with second agent
NCI-H1299 = conditions: 7 days tazemetostat pre-treatment, 6 days co-treatment with second agent
Description: as §1, §2

HCC827 = conditions: 7 days tazemetostat pre-treatment, 6 days co-treatment with second agent
Description: as §1, §2, §4

NCI-H838 = conditions: 7 days tazemetostat pre-treatment, 6 days co-treatment with second agent
Description: as §1, §2, §4

A549 = conditions: 7 days tazemetostat pre-treatment, 6 days co-treatment with second agent
Description: as §1, §2

NCI-H1993 = conditions: 7 days tazemetostat pre-treatment, 6 days co-treatment with second agent

| SMILES | combinatorial effect with tazemetostat (Loewe volume class) (NCI-H1703) | combinatorial effect with tazemetostat (Loewe volume class) (NCI-H2122) | combinatorial effect with tazemetostat (Loewe volume class) (NCI-H23) | combinatorial effect with tazemetostat (Loewe volume class) (NCI-H661) | combinatorial effect with tazemetostat (Loewe volume class) (NCI-H1573) | combinatorial effect with tazemetostat (Loewe volume class) (A427) | combinatorial effect with tazemetostat (Loewe volume class) (NCI-H522) | combinatorial effect with tazemetostat (Loewe volume class) (NCI-H1793) | combinatorial effect with tazemetostat (Loewe volume class) (NCI-H2110) | combinatorial effect with tazemetostat (Loewe volume class) (NCI-H460) | combinatorial effect with tazemetostat (Loewe volume class) (Calu-3) | combinatorial effect with tazemetostat (Loewe volume class) (NCI-H2030) | combinatorial effect with tazemetostat (Loewe volume class) (Calu-6) | combinatorial effect with tazemetostat (Loewe volume class) (NCI-H1299) | combinatorial effect with tazemetostat (Loewe volume class) (HCC827) | combinatorial effect with tazemetostat (Loewe volume class) (NCI-H838) | combinatorial effect with tazemetostat (Loewe volume class) (A549) | combinatorial effect with tazemetostat (Loewe volume class) (NCI-H1993) |
| --- | --- | --- | --- | --- | --- | --- | --- | --- | --- | --- | --- | --- | --- | --- | --- | --- | --- | --- |
| N.N.[Cl][Pt][Cl] [Cisplatin, cisplatin] | No eff. | Anta. (volumes <−1 denoted “antagonism”) | Add. (A value between −1 and 1 denoted “additivity”) | Syn. (Loewe volumes greater than 1 denoted “synergy”) | Add. (A value between −1 and 1 denoted “additivity”) | Syn. (Loewe volumes greater than 1 denoted “synergy”) | Anta. (volumes <−1 denoted “antagonism”) | No eff. | Add. (A value between −1 and 1 denoted “additivity”) | Add. (A value between −1 and 1 denoted “additivity”) | Syn. (Loewe volumes greater than 1 denoted “synergy”) | Syn. (Loewe volumes greater than 1 denoted “synergy”) | Add. (A value between −1 and 1 denoted “additivity”) | No eff. | Add. (A value between −1 and 1 denoted “additivity”) | Add. (A value between −1 and 1 denoted “additivity”) | Syn. (Loewe volumes greater than 1 denoted “synergy”) | Syn. (Loewe volumes greater than 1 denoted “synergy”) |
| Nc1ccn([C@@H]2O[C@H](CO)[C@@H](O)C2(F)F)c(=O)n1 [Gemcitabine, gemcitabine] | Add. (A value between −1 and 1 denoted “additivity”) | Add. (A value between −1 and 1 denoted “additivity”) | Add. (A value between −1 and 1 denoted “additivity”) | Syn. (Loewe volumes greater than 1 denoted “synergy”) | Add. (A value between −1 and 1 denoted “additivity”) | Syn. (Loewe volumes greater than 1 denoted “synergy”) | Anta. (volumes <−1 denoted “antagonism”) | Add. (A value between −1 and 1 denoted “additivity”) | Anta. (volumes <−1 denoted “antagonism”) | Add. (A value between −1 and 1 denoted “additivity”) | Add. (A value between −1 and 1 denoted “additivity”) | Add. (A value between −1 and 1 denoted “additivity”) | Add. (A value between −1 and 1 denoted “additivity”) | Add. (A value between −1 and 1 denoted “additivity”) | Add. (A value between −1 and 1 denoted “additivity”) | Add. (A value between −1 and 1 denoted “additivity”) | Add. (A value between −1 and 1 denoted “additivity”) | Add. (A value between −1 and 1 denoted “additivity”) |
